According to patent US9296684B2, “Allyl 2-cyanoacrylate prepolymer, preparation method thereof, and bioadhesive composition comprising the prepolymer” (UNIVERSITY-INDUSTRY COOPERATION GROUP OF KYUNG HEE …, priority 2011, dated 2016):

Test: Change of viscosity according to time for heating 2-cyanoacrylate prepolymer
Format: physicochemical
Settings: heated at 150° C., FIG. 1
Protocol: 10 ml of an allyl 2-cyanoacrylate was added to a glass test tube and then sealed in a vacuum state. The sealed glass test tube was put in an oil bath of 150° C. to heat it for 5, 10, 20, 30, 40, 50, 60, and 70 minutes. The heated cyanoacrylate per each given period of time was cooled at room temperature and then the change in viscosity was observed.
An ethyl 2-cyanoacrylate was heated; then the heated cyanoacrylate per each given period of time was cooled at room temperature, and then the change in viscosity was observed, by using an identical method as in Example 1 described above, with the exception that ethyl 2-cyanoacrylate was used instead of allyl 2-cyanoacrylate.
The results of investigating the change in viscosity according to time of heating the 2-cyanoacrylate prepolymer in Example 1 and Comparative Example 1 are shown in FIG. 1. Furthermore, the values of viscosity according to time of heating the 2-cyanoacrylate prepolymer in Example 1 are shown in the following Table 1.

SMILES: C=C(C#N)C(=O)OCC [ethyl 2-cyanoacrylate]
- change in viscosity with greater heating time: no increase in the viscosity
